The source of these data is patent US20260078099A1, “COMPOUND, PREPARATION METHOD THEREOF, AND LIPID NANOPARTICLE AND PHARMACEUTICAL COMPOSITION” (priority 2023, published 2026).

SMILES strings stand for the structures.

Data set [1] can be described thus: LNP size and PDI by dynamic light scattering. Format: physicochemical. The note with it: mRNA LNP, cationic lipid/DSPC/cholesterol/PEG-lipid 50:10:38.5:1.5.
In data set [2] the test system is mice. Description: Bioluminescent study, intramuscular injection of F-luc mRNA LNPs. Format: in vivo. The note with it: F-luc luminescence flux normalized to MC3; 0.25 mg/kg intramuscular, mice n=3, 6-hour time point. Summed up:
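Mice (n=3) received LNP-formulated F-luc mRNA at 0.25 mg/kg intramuscularly. Bioluminescence was read 6 h after dosing. Test LNPs were made with an MC3 formulation, and PBS served as control in some groups.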

Data set [3] in a line: LNP zeta potential. Format: physicochemical. The note with it: mRNA LNP.
The nature of data set [4]: LNP encapsulation efficiency (Quant-it Ribogreen). The note with it: mRNA LNP, cationic lipid/DSPC/cholesterol/PEG-lipid 50:10:38.5:1.5. Format: physicochemical.

As to `CCCCCCCC(C(=O)NCCCCCCCCCC(=O)OC(CCCCCC)CCCCCC)N(CCCN(C)C)C(=O)CCCCCCCCCC(=O)OCC1CC=CCC1` (stereo not drawn) [Compound A19], in data set [1], the PDI is 0.093 and the “Size (nm)” value worked out at 78.64 nm. For the same compound, in data set [2], the “Relative Total flux” value is reported as “D (D: <0.1.)”. In data set [3], the “Zeta potential (mV)” value is listed as −0.20 mV. For the same compound, the “Encapsulation efficiency (%)” value in data set [4] is 89.13%.
The like results for `CCCCCCCCC(C(=O)NCCCCCCCCCC(=O)OCC12CC3CC(CC(C3)C1)C2)N(CCCN(C)C)C(=O)CCCCCCCCCC(=O)OC(CCCCCC)CCCCCC` (stereo not drawn) [Compound A18] were, in that order, 0.136, 78.14 nm, “D (D: <0.1.)”, −15.20 mV and 87.17%.
With `CCCCCCCC(C(=O)NCCCCCCCCCC(=O)OC(CCCCCC)CCCCCC)N(CCCN(CCO)CCO)C(=O)CCCCCCCCCC(=O)OCC1CC=CCC1` (stereo not drawn) [Compound B5], in data set [1], the PDI is listed as 0.163 and the “Size (nm)” value turned out to be 55.64 nm. The “Relative Total flux” value in data set [2] is reported as “A (A: ≥2)”. Moreover, in data set [3], the “Zeta potential (mV)” value is 6.08 mV. Further, the “Encapsulation efficiency (%)” value in data set [4] stood at 95.00%.
The like results for `CCCCCCCCNC(=O)C(CCCCCCCC)N(CCN(CCO)CCO)C(=O)CCCCCCC(=O)OC(CCCCCCCC)CCCCCCCC` (stereo not drawn) [Compound B32] were, in that order, 0.32, 119.93 nm, “A (A: ≥2)”, 7.87 mV and 93.95%.
Consider `CCCCCCC(CCCCCC)OC(=O)CCCCCCCCCNC(=O)C(CCCCCCCCCC(=O)OC(CCCCCC)CCCCCC)N(CCCN1CCN(C)CC1)C(=O)CCCN1CCN(C)CC1` (stereo not drawn) [Compound E9], for which, in data set [1], the PDI was 0.593 and the “Size (nm)” value was 91.81 nm. Besides, the “Relative Total flux” value in data set [2] was “C (C: ≥0.1 and <1)”. Besides, the “Zeta potential (mV)” value in data set [3] was −15.91 mV. For the same compound, the “Encapsulation efficiency (%)” value in data set [4] came to 82.13%.
As for `CCCCCCCC(C(=O)NCCCCCCCCCC(=O)OC(CCCCCC)CCCCCC)N(CCCN(CCO)C1CCC1)C(=O)CCCCCCCCCC(=O)OC(CCCCCC)CCCCCC` (stereo not drawn) [Compound B10], in data set [1], the PDI is 0.166 and the “Size (nm)” value was 66.9 nm. Also, in data set [2], the “Relative Total flux” value is “A (A: ≥2)”. In addition, the “Zeta potential (mV)” value in data set [3] was 2.18 mV. The “Encapsulation efficiency (%)” value in data set [4] was 46.91%.
In the case of `CCCCC/C=C\C/C=C\CCCCCCCCC(CCCCCCCC/C=C\C/C=C\CCCCC)OC(=O)CCCN(C)C` [DLin-MC3, reference compound], in data set [1], the PDI is listed as 0.036 and the “Size (nm)” value stood at 87.75 nm. In addition, the “Relative Total flux” value in data set [2] is “B (B: ≥1 and <2)”. Further, the “Zeta potential (mV)” value in data set [3] was −3.25 mV. Further, in data set [4], the “Encapsulation efficiency (%)” value amounted to 95.24%.
On to `CCCCCCCCCCOCCCCCCCC(=O)N(CCCN(C)C)C(CCCCCCCC)C(=O)NCCCCCCCC` (stereo not drawn) [Compound A42], for which, in data set [1], the PDI is listed as 0.19 and the “Size (nm)” value was 90.78 nm. The “Relative Total flux” value in data set [2] is given as “A (A: ≥2)”. In data set [3], the “Zeta potential (mV)” value was −1.88 mV. Further, the “Encapsulation efficiency (%)” value in data set [4] is listed as 95.23%.
The like results for `CCCCCCCCC(C(=O)NCCCCCCCCCC(=O)OCCCCCC)N(CCCN(C)C)C(=O)CCCCCCCCCC(=O)OC(CCCCCC)CCCCCC` (stereo not drawn) [Compound A15] were, in that order, 0.251, 113.2 nm, “A (A: ≥2)”, 4.75 mV and 93.95%.
The like results for `CCCCCCCC(C(=O)NCCCCCCCCCC(=O)OC(CCCCCC)CCCCCC)N(CCCn1ccnc1)C(=O)CCCCCCCCCC(=O)OC(CCCCCC)CCCCCC` (stereo not drawn) [Compound B20] were, in that order, 0.391, 93.23 nm, “A (A: ≥2)”, −2.36 mV and 93.73%.
Consider `CCCCCC/C=C\CCCCCCCC(C(=O)NCCCCCC)N(CCCN(C)C)C(=O)CCCCCCC(=O)OC(CCCCCCCC)CCCCCCCC` (stereo not drawn) [Compound A40], for which, in data set [1], the PDI is given as 0.17 and the “Size (nm)” value is 75.94 nm. Also, the “Relative Total flux” value in data set [2] is “C (C: ≥0.1 and <1)”. Further, the “Zeta potential (mV)” value in data set [3] is on record as −0.97 mV. Moreover, the “Encapsulation efficiency (%)” value in data set [4] turned out to be 93.54%.
With `CCCCCCCCCCOCCCCCCCC(=O)N(CCCN(C)C)C(CCCCCCCC)C(=O)NCCCCCC(=O)OC(CCCCCCCC)CCCCCCCC` (stereo not drawn) [Compound A41], in data set [1], the PDI was 0.66 and the “Size (nm)” value was determined as 264.60 nm. Moreover, the “Relative Total flux” value in data set [2] is “C (C: ≥0.1 and <1)”. Moreover, the “Zeta potential (mV)” value in data set [3] is reported as −10.28 mV. Besides, the “Encapsulation efficiency (%)” value in data set [4] is 54.08%.
Take `CCCCCCCCC(CCCCCC)COC(=O)CCCCCCCCCNC(=O)C(CCCCCCCC)N(CCCN(C)C)C(=O)CCCCCCCCCC(=O)OCC(CCCCCC)CCCCCCCC` (stereo not drawn) [Compound A14]: in data set [1], the PDI was determined as 0.228 and the “Size (nm)” value was found to be 89.33 nm. Further, the “Relative Total flux” value in data set [2] was “C (C: ≥0.1 and <1)”. Moreover, the “Zeta potential (mV)” value in data set [3] came to 4.02 mV. Also, in data set [4], the “Encapsulation efficiency (%)” value was 94.31%.
Consider `CCCCCCCCNC(=O)C(CCCCCCCC)N(CCCN(CC)CC)C(=O)CCCCCCC(=O)OC(CCCCCCCC)CCCCCCCC` (stereo not drawn) [Compound A33], for which, in data set [1], the PDI was determined as 0.10 and the “Size (nm)” value turned out to be 79.84 nm. Further, in data set [2], the “Relative Total flux” value is recorded as “A (A: ≥2)”. Also, in data set [3], the “Zeta potential (mV)” value turned out to be 0.51 mV. The “Encapsulation efficiency (%)” value in data set [4] was determined as 94.69%.
For `CCCCCCCCC(CCCCCC)C(=O)OCCCCCCN(CCCCO)CCCCCCOC(=O)C(CCCCCC)CCCCCCCC` (stereo not drawn) [ALC-0315], in data set [1], the PDI was 0.082 and the “Size (nm)” value turned out to be 70.12 nm. For the same compound, in data set [2], the “Relative Total flux” value is reported as “A (A: ≥2)”. In addition, the “Zeta potential (mV)” value in data set [3] was −0.76 mV. Besides, the “Encapsulation efficiency (%)” value in data set [4] came out at 93.27%.
The like results for `CCCCCCCCNC(=O)C(CCCCCC)N(CCCN(C)C)C(=O)CCCCCCC(=O)OC(CCCCCCCC)CCCCCCCC` (stereo not drawn) [Compound A29] were, in that order, 0.09, 94.71 nm, “A (A: ≥2)”, −1.24 mV and 94.69%.
Take `CCCCCCC(CCCCCC)OC(=O)CCCCCCCCCNC(=O)C(CCCCCCCCCC(=O)OC(CCCCCC)CCCCCC)N(CCCN1CCN(CO)CC1)C(=O)CCCN1CCN(CCO)CC1` (stereo not drawn) [Compound E11]: in data set [1], the PDI is listed as 0.158 and the “Size (nm)” value is recorded as 85.75 nm. For the same compound, the “Relative Total flux” value in data set [2] was “B (B: ≥1 and <2)”. In addition, the “Zeta potential (mV)” value in data set [3] amounted to 0.85 mV. In data set [4], the “Encapsulation efficiency (%)” value amounted to 93.77%.
Consider `CCCCCCCCC(C(=O)NCCCCCCCCCC(=O)OC(CCCC)CCCCCC)N(CCCN(C)C)C(=O)CCCCCCCCCC(=O)OC(CCCC)CCCCCC` (stereo not drawn) [Compound A13], for which, in data set [1], the PDI is 0.157 and the “Size (nm)” value was found to be 118.5 nm. In data set [2], the “Relative Total flux” value is “B (B: ≥1 and <2)”. For the same compound, the “Zeta potential (mV)” value in data set [3] is 2.90 mV. Also, in data set [4], the “Encapsulation efficiency (%)” value was found to be 94.62%.
For the compound `CCCCCCCC(C(=O)NCCCCCCCCCC(=O)OC(CCCCCC)CCCCCC)N(CCCN1CCCC1)C(=O)CCCCCCCCCC(=O)OCC12CC3CC(CC(C3)C1)C2` (stereo not drawn) [Compound A7], in data set [1], the PDI was determined as 0.274 and the “Size (nm)” value was 62.53 nm. Further, the “Relative Total flux” value in data set [2] is “C (C: ≥0.1 and <1)”. Further, the “Zeta potential (mV)” value in data set [3] turned out to be 4.99 mV. Moreover, the “Encapsulation efficiency (%)” value in data set [4] turned out to be 96.10%.
As to `CCCCCCC(CCCCCC)OC(=O)CCCCCCCCCNC(=O)C(CCCCCCCCCC(=O)OC(CCCCCC)CCCCCC)N(CCCN(CCO)CCO)C(=O)CCCN(CC)CC` (stereo not drawn) [Compound E4], in data set [1], the PDI amounted to 0.205 and the “Size (nm)” value was found to be 95.73 nm. For the same compound, in data set [2], the “Relative Total flux” value is “A (A: ≥2)”. For the same compound, the “Zeta potential (mV)” value in data set [3] was 5.03 mV. Also, the “Encapsulation efficiency (%)” value in data set [4] came out at 95.18%.
On to `CCCCCCCCNC(=O)C(CCCCC)N(CCCN(C)C)C(=O)CCCCCCC(=O)OC(CCCCCCCC)CCCCCCCC` (stereo not drawn) [Compound A28], for which, in data set [1], the PDI is 0.15 and the “Size (nm)” value is recorded as 88.05 nm. In data set [2], the “Relative Total flux” value was “A (A: ≥2)”. Also, the “Zeta potential (mV)” value in data set [3] was −0.41 mV. In addition, the “Encapsulation efficiency (%)” value in data set [4] is given as 85.93%.
Turning to `CCCCCCCCC(C(=O)NCCCCCCCCCC(=O)OCCCCCC)N(CCCN1CCCC1)C(=O)CCCCCCCCCC(=O)OC(CCCCCC)CCCCCC` (stereo not drawn) [Compound A5], in data set [1], the PDI is listed as 0.13 and the “Size (nm)” value turned out to be 60.62 nm. Further, the “Relative Total flux” value in data set [2] is listed as “D (D: <0.1.)”. In addition, the “Zeta potential (mV)” value in data set [3] is −17.73 mV. Further, in data set [4], the “Encapsulation efficiency (%)” value was found to be 92.48%.
The like results for `CCCCCCCCC(C(=O)NCCCCCCCCCC(=O)OCC1CC=CCC1)N(CCCN1CCCC1)C(=O)CCCCCCCCCC(=O)OC(CCCCCC)CCCCCC` (stereo not drawn) [Compound A10] were, in that order, 0.415, 61.16 nm, “A (A: ≥2)”, −3.45 mV and 54.08%.
With `CCCCCC/C=C\CCCCCCCC(C(=O)NCCCCCCCC/C=C\CCCCCCCC)N(CCCN(C)C)C(=O)CCCCCCC/C=C\CCCCCCCC` (stereo not drawn) [Compound C8], in data set [1], the PDI was 0.24 and the “Size (nm)” value is recorded as 78.44 nm. Also, the “Relative Total flux” value in data set [2] is on record as “A (A: ≥2)”. Further, the “Zeta potential (mV)” value in data set [3] is −0.77 mV. Besides, in data set [4], the “Encapsulation efficiency (%)” value was 82.17%.
